Results published in publication PMC10824102, “Identification of small molecule inhibitors of G3BP-driven stress granule formation” (The Journal of Cell Biology, 2024).

What was measured:
[1] = system: preformed stress granules in U2OS cells stably expressing G3BP1-GFP; test: Post-addition: dissolution of heat stress-induced stress granules; type: cell-based; details: for immediate reduction in stress granule area (preformed granules): 50 μM added after 25 min of 43°C heat stress; for stress granule disassembly during recovery at 37°C: 50 μM, compared with cells treated with inactive enantiomers
Method: For post-addition of compounds, U2OS cells stably expressing G3BP1-GFP were seeded into eight-well Lab-Tek chambered cover glass (Nunc) for sodium arsenite experiments or 35-mm glass-bottom dishes (MatTek) for heat shock experiments. Immediately prior to the experiment, media was replaced with FluoroBrite DMEM media (Gibco) in each well supplemented with 10% FBS and 4 mM L-glutamine; for sodium arsenite experiments, arsenite was added at a final concentration of 250 μM. Cells were then placed on a microscope on which 37°C temperature and 5% CO2 were maintained using a Bold Line Cage Incubator (Okolab) and an objective heater (Bioptechs), and 5–10 xy fields were stored. For sodium arsenite experiments, acquisition began immediately after finding all xy positions, 4 min after the addition of sodium arsenite. 30 min after arsenite was added, 250 μl FluoroBrite DMEM with 250 μM sodium arsenite and 0.1 mM (2×) G3I compound (vortexed for 5 s) was added to the sample. For heat shock experiments, each xy position was imaged every minute. At 2 min into the acquisition, the objective heater was ramped to 43°C. Following this, 250 μM (5×) G3I compound was prepared in FluoroBrite DMEM and vortexed for 15 s. This solution was kept on a 47°C heater near the microscope along with a pipette tip. At 27 min into the acquisition (25 min into heat shock), 250 μl of the prewarmed solution was added to the cells using the prewarmed tip. We note that the solution was heated to 47°C to compensate for the rapid heat loss when adding the solution. At 32 min into the acquisition (30 min heat shock), the heat was ramped down to 37°C. All imaging was acquired on a Yokogawa CSU W1 spinning disk attached to a Nikon Ti2 eclipse with a Photometrics Prime 95B camera using Nikon Elements software (v5.20.00 to v5.21.02). Imaging was performed through a Nikon Plan Apo 60× 1.40 NA oil objective with Immersol 518 F (refractive index 1.518; Zeiss), and Perfect Focus 2.0 (Nikon) was engaged for all captures.
Automated granule detection and measurement were performed using a combination of ilastik and CellProfiler software. Briefly, ND2 multipoint timelapse files were resaved as image sequences in Fiji with the Bio-Formats plugin so that individual frames of the movies could be treated as individual images for analysis. From there, pixel classification in ilastik was used to segment both stress granules and the total cellular area within the field using the G3BP1-GFP channel via machine learning. These segmentations, along with the original G3BP1-GFP image, were input into CellProfiler, where objects were defined using the masks from ilastik.

[2] = system: TDP-43 accumulation in stress granules in U2OS cells; test: TDP-43 immunofluorescence after preincubation and arsenite; type: cell-based; details: 50 μM pretreatment, 250 μM NaAsO2 for 30 min
Method: U2OS cells or U2OS cells stably expressing G3BP1-GFP were seeded in four-well Lab-Tek II Chambered Coverglass (1055360; Thermo Fisher Scientific). For preincubation experiments, cells were treated with 50 μM G3I compound for 20 min or 24 h, followed by 250 μM NaAsO2 and 50 μM G3I compound for 30 min. For posttreatment, cells were treated with 250 μM NaAsO2 for 30 min, followed by treatment with 250 μM NaAsO2 and 50 μM G3I compound for 5 min. Cells were then washed twice with PBS and fixed with 4% PFA in PBS for 10 min. Cells were then washed three times with PBS (5 min between each wash), permeabilized with 0.5% Triton X-100 in PBS for 10 min, and washed twice with PBS. Next, cells were blocked for 1 h with 3% BSA in PBS at room temperature, followed by incubation with primary antibodies diluted in 3% BSA overnight at 4°C. Cells were then washed three times with PBS (5 min between each wash) and incubated with secondary antibodies and Hoechst diluted in 3% BSA at room temperature for 1 h. Cells were then washed three times with PBS (5 min between each wash) and imaged. […]

Row | Structure (SMILES) | immediate reduction in stress granule area (preformed granules) [1] [%] | stress granule disassembly during recovery at 37°C [1] | TDP-43 accumulation in stress granules [2]
1 | COCCC(NC(=O)C(C)NC(=O)C(NC(=O)C(NC(=O)C(F)CC(C)(C)C)C(C)(C)O)C(C)c1ccccc1)C(=O)N(C)Cc1ccccc1 (stereo not drawn) [G3Ia] | ~54 | completed disassembly faster | not
2 | CC(NC(=O)C(NC(=O)C(NC(=O)CCC(C)(C)C)C(C)(C)O)C(C)c1ccccc1)C(=O)N1CCCC1c1ccccc1 (stereo not drawn) [G3Ib] | ~68 | completed disassembly faster | not
